Experimental data from publication PMC9917201, “Enhanced Antibacterial Activity of Substituted Derivatives of NCR169C Peptide” (International Journal of Molecular Sciences, 2023).
≈ marks a conversion by molar mass, not a printed value. Where two headings read alike, the source gives them in different places. Non-standard residues stand in square brackets, D forms with d. Residues, ends and D or L forms follow the SMILES beside them. ξ: configuration not given here. Trp(5-F) = N[C@@H](Cc1c[nH]c2ccc(F)cc12)C(=O)O; dTrp(5-F) = N[C@H](Cc1c[nH]c2ccc(F)cc12)C(=O)O; ξTrp(5-OMe) = COc1ccc2[nH]cc(CC(N)C(=O)O)c2c1

Columns and labels:
Type in all cases: cell-based
[1] = tested on: Staphylococcus aureus (HNCMO112011); details: HNCMO112011, 3 h, pH 7.4
From the text: (§1) The bacterial strains for the antimicrobial assay were obtained from the ATCC (American Type Culture Collection, Manassas, VA, USA) and NCTC (National Collection of Type Cultures, Salisbury, UK). Gram-negative strains were Pseudomonas aeruginosa (ATCC 27853), Escherichia coli (ATCC 8739, ATCC 35218, and ATCC 25922), Salmonella enterica (ATCC 13076), Klebsiella pneumoniae (NCTC 13440), Acinetobacter baumannii (ATCC 17978) and the Gram-positive strains were Enterococcus faecalis (ATCC 29212), Listeria monocytogenes (ATCC 19111), and Staphylococcus aureus (HNCMO112011 and ATCC 25923).
(§2) Determination of antibacterial activity for the peptides was carried out by utilizing a minimum bactericidal concentration (MBC) bioassay. Synthesized peptides were dissolved in sterile water and used from 25 to 0.125 μM in 2-fold dilution series and incubated with ~10^7 log phase bacteria in Potassium-Phosphate Buffer (PPB, pH: 7.4) for three hours as described earlier. After that, 5 μl of each sample was placed on LB agar and the growth of bacteria was monitored after overnight incubation at 37 °C. The lowest concentration of the antimicrobial agents that completely eliminated viable bacteria was considered the minimal bactericidal concentration (MBC).

[2] = tested on: Listeria monocytogenes (ATCC 19111); details: ATCC 19111, 3 h, pH 7.4
From the text: as §1, §2

[3] = tested on: Salmonella enterica (ATCC 13076); details: ATCC 13076, 3 h, pH 7.4
From the text: as §1, §2

[4] = tested on: Enterococcus faecalis (ATCC 29212); details: ATCC 29212, 3 h, pH 7.4
From the text: as §1, §2

[5] = tested on: Pseudomonas aeruginosa (ATCC 27853)
From the text: as §1, §2

[6] = tested on: Acinetobacter baumannii (ATCC 17978); details: ATCC 17978, 3 h, pH 7.4
From the text: as §1, §2

[7] = tested on: Klebsiella pneumoniae (NCTC 13440)
From the text: as §1, §2

[8] = tested on: tested bacteria (ESKAPE pathogens, Listeria monocytogenes, Salmonella enterica)
From the text: as §1, §2

[9] = tested on: Escherichia coli (ATCC 8739); details: ATCC 8739, 3 h, pH 7.4
From the text: as §1, §2

[10] = summary over the tested bacterial species, 3 h in PPB pH 7.4

Structure (SMILES) | Minimal bactericidal concentration (MBC) S. a. [1] | Minimal bactericidal concentration (MBC) L. m. [2] | Minimal bactericidal concentration (MBC) S. e. [3] | Minimal bactericidal concentration (MBC) E. f. [4] | Minimal bactericidal concentration (MBC) P. a. ([5]; ATCC 27853, 3 h, pH 7.4) | Minimal bactericidal concentration (MBC) A. b. [6] | Minimal bactericidal concentration (MBC) K. p. ([7]; NCTC 13440, 3 h, pH 7.4) | MBC against most or all of the tested bacteria [8, 10] | Minimal bactericidal concentration (MBC) E. c. [9] | Minimal bactericidal concentration (MBC) K. p. ([7]; Klebsiella pneumoniae NCTC 13440, ~10^7 log phase bacteria, 3 h in PPB pH 7.4, peptide 25 to 0.125 μM 2-fold series, plated on LB agar, overnight 37 °C) | MBC against most or all of the tested bacteria ([8]; 3 h, pH 7.4) | Minimal bactericidal concentration (MBC) P. a. ([5]; Pseudomonas aeruginosa ATCC 27853, ~10^7 log phase bacteria, 3 h in PPB pH 7.4, peptide 25 to 0.125 μM 2-fold series, plated on LB agar, overnight 37 °C)
CC[C@H](C)[C@H](NC(=O)[C@H](CCCCN)NC(=O)[C@H](Cc1ccccc1)NC(=O)[C@H](CC(C)C)NC(=O)[C@@H]1CCCN1C(=O)[C@H](CCCCN)NC(=O)[C@H](CCCCN)NC(=O)[C@H](CO)NC(=O)[C@@H](N)CCCCN)C(=O)N[C@H](Cc1c[nH]c2ccc(F)cc12)C(=O)N[C@@H](CCCCN)C(=O)N[C@@H](CO)C(=O)N[C@H](C(=O)N[C@@H](CCC(=O)O)C(=O)N[C@@H](CC(N)=O)C(=O)N[C@H](C(=O)N[C@@H](CO)C(=O)N[C@H](C(=O)N[C@@H](CC(C)C)C(=O)N[C@@H](Cc1c[nH]c2ccccc12)C(=O)N[C@@H](Cc1ccc(O)cc1)C(=O)N[C@@H](CCCCN)C(N)=O)C(C)C)C(C)C)C(C)C [NCR169C17–38C12,17/S-10W^5-F-D] (H-KSKKPLFKI[dTrp(5-F)]KSVENVSVLWYK-NH2; N-terminus assumed) | 3.1 µM (≈ 8.45 µg/mL) | 6.3 µM (≈ 17.2 µg/mL) | 3.1 µM (≈ 8.45 µg/mL) | 1.6 µM (≈ 4.36 µg/mL) | 3.1 µM (≈ 8.45 µg/mL) | 1.6 µM (≈ 4.36 µg/mL) | 3.1 µM (≈ 8.45 µg/mL) | 1.6—6.3 µM | 1.6 µM (≈ 4.36 µg/mL) |  |  | 
CC[C@H](C)[C@H](NC(=O)[C@H](CCCCN)NC(=O)[C@H](Cc1ccccc1)NC(=O)[C@H](CC(C)C)NC(=O)[C@@H]1CCCN1C(=O)[C@H](CCCCN)NC(=O)[C@H](CCCCN)NC(=O)[C@H](CO)NC(=O)[C@@H](N)CCCCN)C(=O)N[C@@H](Cc1c[nH]c2ccc(F)cc12)C(=O)N[C@@H](CCCCN)C(=O)N[C@@H](CO)C(=O)N[C@H](C(=O)N[C@@H](CCC(=O)O)C(=O)N[C@@H](CC(N)=O)C(=O)N[C@H](C(=O)N[C@@H](CO)C(=O)N[C@H](C(=O)N[C@@H](CC(C)C)C(=O)N[C@@H](Cc1c[nH]c2ccccc12)C(=O)N[C@@H](Cc1ccc(O)cc1)C(=O)N[C@@H](CCCCN)C(N)=O)C(C)C)C(C)C)C(C)C [NCR169C17–38C12,17/S-10W^5-F-L] (H-KSKKPLFKI[Trp(5-F)]KSVENVSVLWYK-NH2; N-terminus assumed) | 1.6 µM (≈ 4.36 µg/mL) | 1.6 µM (≈ 4.36 µg/mL) | 1.6 µM (≈ 4.36 µg/mL) | 1.6 µM (≈ 4.36 µg/mL) | 1.6 µM (≈ 4.36 µg/mL) | 1.6 µM (≈ 4.36 µg/mL) | 3.1 µM (≈ 8.45 µg/mL) | 1.6—6.3 µM | 1.6 µM (≈ 4.36 µg/mL) | 3.1 µM (≈ 8.45 µg/mL) | 1.6 µM | 
CC[C@H](C)[C@H](NC(=O)[C@H](CCCCN)NC(=O)[C@H](Cc1ccccc1)NC(=O)[C@H](CC(C)C)NC(=O)[C@@H]1CCCN1C(=O)[C@H](CCCCN)NC(=O)[C@H](CCCCN)NC(=O)[C@H](CO)NC(=O)[C@@H](N)CCCCN)C(=O)NC(Cc1c[nH]c2ccc(OC)cc12)C(=O)N[C@@H](CCCCN)C(=O)N[C@@H](CO)C(=O)N[C@H](C(=O)N[C@@H](CCC(=O)O)C(=O)N[C@@H](CC(N)=O)C(=O)N[C@H](C(=O)N[C@@H](CO)C(=O)N[C@H](C(=O)N[C@@H](CC(C)C)C(=O)N[C@@H](Cc1c[nH]c2ccccc12)C(=O)N[C@@H](Cc1ccc(O)cc1)C(=O)N[C@@H](CCCCN)C(N)=O)C(C)C)C(C)C)C(C)C (some centres unmarked) [NCR169C17–38C12,17/S-10W^5-MeO II] (H-KSKKPLFKI[ξTrp(5-OMe)]KSVENVSVLWYK-NH2; N-terminus assumed) | 3.1 µM (≈ 8.49 µg/mL) | 3.1 µM (≈ 8.49 µg/mL) | 3.1 µM (≈ 8.49 µg/mL) | 3.1 µM (≈ 8.49 µg/mL) |  | 3.1 µM (≈ 8.49 µg/mL) | 3.1 µM (≈ 8.49 µg/mL) |  | 3.1 µM (≈ 8.49 µg/mL) |  | 3.1 µM | 25 µM (≈ 68.4 µg/mL)
